Test results as given in patent US20260337228A1, “COMPOSITION AND METHOD FOR TREATING NEONATAL HYPOXIC-ISCHEMIC ENCEPHALOPATHY” (SUZHOU GLENKOL PHARMA TECHNOLOGY CO., LTD., priority 2023, published 2026).

What was measured:
[1] = system: cerebral cortical neural cells; experiment: MTT assay for cell viability after oxygen-glucose deprivation; format: cell-based, neonatal rat; settings: 2 mM NaP, positive control; 24 hours after injury; vs untreated oxygen-glucose deprivation group, p<0.05
Method: (§1) Culture of cerebral cortical neural cells: The brains of neonatal rats were dissected, the meninges removed, and the cerebral cortex isolated. The cortical tissues were digested with papain, single cells collected, and plated onto lysine-treated coverslips and cultured in Neurobasal™ serum-free medium. To mimic hypoxic-ischemic encephalopathy injury in vitro, the Neurobasal medium was replaced with DMEM medium at 7 days in vitro (DIV7), and cells were cultured under 21% O2/5% CO2 for 2.5 hours to serve as the control group, or Neurobasal medium replaced with glucose-free DMEM medium and cells cultured under 0% O2/5% CO2 for 2.5 hours to serve as the oxygen-glucose deprivation treatment group. After treatment, both groups were returned to Neurobasal medium and cultured normally under 21% O2/5% CO2 for 24 hours.
S1 Pretreatment: At the start of the oxygen-glucose deprivation treatment, cells were simultaneously treated with S1 (final concentrations of 0.01 μM, 0.1 μM, 1 μM, or 10 μM), or with the scrambled peptide Tat-NRRRNSKLQHKKY (SEQ ID NO: 10), or with NaP (Davunetide) as a control.
MTT assay for cell viability: After 24 hours of normal culture, MTT solution was added to each group and cultured for an additional 4 hours. […] Then, measure the absorbance at 490 nm and calculate the MTT formation level, which indicates cell viability. […]

[2] = system: cerebral cortical neural cells; experiment: Lactate dehydrogenase (LDH) cytotoxicity assay after oxygen-glucose deprivation; format: cell-based, neonatal rat; settings: 2 mM NaP, positive control; 24 hours after injury; vs untreated oxygen-glucose deprivation group, p<0.05
Method: as §1, with “hours. […]” for “hours.”
Lactate dehydrogenase (LDH) kit cytotoxicity assay: After 24 hours of normal culture, collect the cell culture supernatant from each group, add the LDH assay working solution, mix thoroughly, and incubate at room temperature in the dark for 30 minutes. Then, measure the absorbance at 490 nm and calculate the LDH release level, which indicates cytotoxicity. […]

In the case of `CC[C@H](C)[C@H](NC(=O)[C@H](CO)NC(=O)[C@@H](NC(=O)[C@@H]1CCCN1C(=O)[C@H](C)NC(=O)[C@@H](N)CC(N)=O)C(C)C)C(=O)N1CCC[C@H]1C(=O)N[C@@H](CCC(N)=O)C(=O)O` [NaP, Davunetide], the MTT formation levels [1] is reported as “significantly increased MTT formation levels” and the LDH release levels [2] is reported as “significantly reduced LDH release levels”.
